Measurements: patent US9919998B2, “Antibacterial agents: Nα-aroyl-N-aryl-phenylalaninamides” (priority 2014, dated 2018)
Converted amounts (≈) assume the structure as drawn. Read-outs that look alike come from different tables or passages of the source.

Assays:
Format in all cases: cell-based
[1] = test system: Mycobacterium tuberculosis H37Rv; experiment: Microplate Alamar Blue assay (MABA) MIC, M. tuberculosis; settings: read-out: MIC Mycobacterium tuberculosis H37Rv
From the text: (§1) Minimal inhibitory concentrations (MICs) in Mycobacterium tuberculosis H37Rv and Mycobacterium avium ATCC 25291 were quantified using microplate Alamar Blue assays as described (MABA; [Collins, L. & Franzblau, S. (1997) Microplate Alamar Blue assay versus BACTEC 460 system for high-throughput screening of compounds against Mycobacterium tuberculosis and Mycobacterium avium. Antimicrob. Agents Chemother. 41, 1004-1009]).

[2] = test system: Mycobacterium avium ATCC 25291; experiment: Microplate Alamar Blue assay (MABA) MIC, M. avium; settings: ATCC25291, M. avium ATCC 25291
From the text: as §1

[3] = test system: Mycobacterium smegmatis ATCC 19420; experiment: Broth microdilution MIC, M. smegmatis; settings: Mycolicibacterium smegmatis
From the text: MICs in Mycobacterium smegmatis ATCC 19420 and Mycobacterium smegmatis ATCC 19420 derivatives were quantified using broth microdilution assays as described [Clinical and Laboratory Standards Institute (CLSI/NCCLS) (2009) Methods for Dilution Antimicrobial Susceptibility Tests for Bacteria That Grow Aerobically; Approved Standard, Eighth Edition. CLIS Document M07-A8 (CLIS, Wayne Pa.)].

[4] = test system: Vero E6 ATCC CRL1586 cells; experiment: Mammalian-cell cytotoxicity, minimal cytotoxic concentration (CellTiter96)
Protocol: Minimal cytotoxic concentrations (MCCs) against mammalian cells in culture were determined using Vero E6 ATCC CRL1586 cells and the CellTiter96 assay kit (Promega, Inc.). […]

[5] = ATCC19420, M. smegmatis ATCC 19420, read-out: MIC Mycobacterium smegmatis ATCC 19420
[6] = ATCC19420, broth microdilution assays, M. smegmatis ATCC19420, read-out: Inhibition of mycobacterial growth in culture (MICs)

| SMILES | MIC [1] | MIC [2] | MIC [3, 5] | MCC mammalian cells Vero E6 ATCC CRL1586 [4] | MIC [3, 6] |
| --- | --- | --- | --- | --- | --- |
| Cc1ccc(F)cc1NC(=O)C(Cc1ccccc1)NC(=O)c1ccccc1Cl (stereo not shown) [IX-82, 2-chloro-N-(1-((5-fluoro-2-methylphenyl)amino)-1-oxo-3-phenylpropan-2-yl)benzamide] | 1.56 µg/mL (≈ 3.8 µM) | 3.12 µg/mL (≈ 7.61 µM) | 0.39 µg/mL (≈ 0.949 µM) | 20 µg/mL | – |
| Cc1ccccc1C(=O)NC(Cc1ccccc1)C(=O)Nc1cc(F)ccc1OCF (stereo not shown) [IX-111, N-(1-((5-fluoro-2-(fluoromethoxy)phenyl)amino)-1-oxo-3-phenyl-propan-2-yl)-2-methylbenzamide] | 0.39 µg/mL (≈ 0.919 µM) | 0.78 µg/mL (≈ 1.84 µM) | 0.39 µg/mL (≈ 0.919 µM) | 100 µg/mL | – |
| Cc1ccc(Br)cc1NC(=O)C(Cc1ccc(O)cc1)NC(=O)c1ccccc1 (stereo not shown) [IX-103, N-(1-((5-bromo-2-methylphenyl)amino)-3-(4-hydroxyphenyl)-1-oxopropan-2-yl)benzamide] | 12.5 µg/mL (≈ 27.6 µM) | 12.5 µg/mL (≈ 27.6 µM) | 0.78 µg/mL (≈ 1.72 µM) | 62 µg/mL | – |
| Cc1c(NC(=O)C(Cc2ccccc2)NC(=O)c2ccccc2)cccc1-n1cnnn1 (stereo not shown) [I-226] | > 50 µg/mL | – | 0.78 µg/mL (≈ 1.83 µM) | >100 µg/mL | – |
| Cc1ccccc1NC(=O)C(Cc1ccc(O)cc1)NC(=O)c1cccs1 (stereo not shown) [IX-28, N-(3-(4-hydroxyphenyl)-1-oxo-1-(o-tolylamino)propan-2-yl)thiophene-2-carboxamide] | 12.5 µg/mL (≈ 32.9 µM) | 12.5 µg/mL (≈ 32.9 µM) | 0.39 µg/mL (≈ 1.03 µM) | 80 µg/mL | – |
| Cn1ncc2c(NC(=O)C(Cc3ccccc3)NC(=O)c3ccccc3F)cccc21 (stereo not shown) [IX-296, 2-fluoro-N-(1-((1-methyl-1H-indazol-4-yl)amino)-1-oxo-3-phenyl-propan-2-yl)benzamide] | 1.56 µg/mL (≈ 3.75 µM) | 1.56 µg/mL (≈ 3.75 µM) | 0.78 µg/mL (≈ 1.87 µM) | – | – |
| O=C(NC(Cc1ccccc1)C(=O)Nc1ccccc1-n1ccnn1)c1ccccc1 (stereo not shown) [I-214] | > 50 µg/mL | – | 3.12 µg/mL (≈ 7.59 µM) | >100 µg/mL | – |
| O=C(NC(Cc1ccccc1)C(=O)Nc1cc(F)ccc1N1CC2CCCNC2C1)c1ccccc1F (stereo not shown) [IX-307, 2-fluoro-N-(1-((5-fluoro-2-(octahydro-6H-pyrrolo[3,4-b]pyridin-6-yl)-phenyl)amino)-1-oxo-3-phenylpropan-2-yl)benzamide] | 12.5 µg/mL (≈ 24.8 µM) | 25 µg/mL (≈ 49.5 µM) | 6.12 µg/mL (≈ 12.1 µM) | – | – |
| CC(=O)N1CCN(c2ccccc2NC(=O)C(Cc2ccccc2)NC(=O)c2ccccc2)CC1 (stereo not shown) [IX-236, N-(1-((2-(4-acetylpiperazin-1-yl)phenyl)amino)-1-oxo-3-phenyl-propan-2-yl)benzamide] | 6.25 µg/mL (≈ 13.3 µM) | 6.25 µg/mL (≈ 13.3 µM) | 0.195 µg/mL (≈ 0.414 µM) | – | – |
| Cc1cccc(C(=O)NC(Cc2ccccc2)C(=O)Nc2ccccc2C)c1 (stereo not shown) [I-113] | > 50 µg/mL | – | 1.56 µg/mL (≈ 4.19 µM) | >100 µg/mL | – |
| O=C(N[C@@H](Cc1ccccc1)C(=O)Nc1cc(Cl)ccc1N1CCNCC1)c1ccccc1F (racemic) [IX-274b] | 6.25 µg/mL (≈ 13 µM) | 6.25 µg/mL (≈ 13 µM) | 6.25 µg/mL (≈ 13 µM) | – | – |
| CNC(=O)N1CCN(c2ccccc2NC(=O)C(Cc2ccccc2)NC(=O)c2ccccc2)CC1 (stereo not shown) [IX-238, 4-(2-(2-benzamido-3-phenylpropanamido)phenyl)-N-methyl-piperazine-1-carboxamide] | 1.56 µg/mL (≈ 3.21 µM) | 1.56 µg/mL (≈ 3.21 µM) | 0.195 µg/mL (≈ 0.402 µM) | – | – |
| O=C(NC(Cc1ccccc1)C(=O)Nc1cccc2ncccc12)c1ccccc1F (stereo not shown) [IX-58, 2-fluoro-N-(1-oxo-3-phenyl-1-(quinolin-5-ylamino)propan-2-yl)benzamide] | – | – | 1.56 µg/mL (≈ 3.77 µM) | 78 µg/mL | – |
| CCOc1cccc(C(=O)NC(Cc2ccccc2)C(=O)Nc2ccccc2C)c1 (stereo not shown) [I-37] | > 50 µg/mL | – | 25 µg/mL (≈ 62.1 µM) | 5 µg/mL | – |
| COc1ccc(F)cc1NC(=O)C(Cc1ccccc1)NC(=O)c1ccccc1C (stereo not shown) [IX-277, N-(1-((5-fluoro-2-methoxyphenyl)amino)-1-oxo-3-phenylpropan-2-yl)-2-methylbenzamide] | 0.31 µg/mL (≈ 0.763 µM) | 0.39 µg/mL (≈ 0.96 µM) | 0.39 µg/mL (≈ 0.96 µM) | – | – |
| Cc1ccccc1NC(=O)C(Cc1ccc(N2CCOCC2)cc1)NC(=O)c1ccccc1 (stereo not shown) [I-188] | 25 µg/mL (≈ 56.4 µM) | – | 6.25 µg/mL (≈ 14.1 µM) | 35 µg/mL | – |
| NC1CCN(c2ccc(F)cc2NC(=O)C(Cc2ccccc2)NC(=O)c2ccccc2F)C1 (stereo not shown) [IX-306, N-(1-((2-(3-aminopyrrolidin-1-yl)-5-fluorophenyl)amino)-1-oxo-3-phenylpropan-2-yl)-2-fluorobenzamide] | – | – | 0.78 µg/mL (≈ 1.68 µM) | – | – |
| Cc1ccccc1NC(=O)C(Cc1ccc(O)c(O)c1)NC(=O)c1ccccc1 (stereo not shown) [IX-25, N-(3-(3,4-dihydroxyphenyl)-1-oxo-1-(o-tolylamino)propan-2-yl)benzamide] | – | – | 1.56 µg/mL (≈ 4 µM) | 21 µg/mL | – |
| O=C(NC(Cc1ccccc1)C(=O)Nc1ccccc1-n1cnnn1)c1ccccc1 (stereo not shown) [I-225] | > 50 µg/mL | – | 6.25 µg/mL (≈ 15.2 µM) | >100 µg/mL | – |

| SMILES | MIC [1] | MIC [2] | MIC [3, 5] | MCC mammalian cells Vero E6 ATCC CRL1586 [4] | MIC [3, 6] |
| --- | --- | --- | --- | --- | --- |
| CC1CN(c2ccc(F)cc2NC(=O)C(Cc2ccccc2)NC(=O)c2ccccc2F)CCN1 (stereo not shown) [IX-305, 2-fluoro-N-(1-((5-fluoro-2-(3-methylpiperazin-1-yl)phenyl)amino)-1-oxo-3-phenylpropan-2-yl)benzamide] | 1.56 µg/mL (≈ 3.26 µM) | 12.5 µg/mL (≈ 26.1 µM) | 0.78 µg/mL (≈ 1.63 µM) | – | – |
| O=C(NC(Cc1ccccc1)C(=O)Nc1ccccn1)c1ccccc1 (stereo not shown) [AAP6] | – | – | – | – | 1.56 µg/mL (≈ 4.52 µM) |
| CC1CN(c2ccc(F)cc2NC(=O)C(Cc2ccccc2)NC(=O)c2ccccc2F)CC(C)N1 (stereo not shown) [IX-308, N-(1-((2-(3,5-dimethylpiperazin-1-yl)-5-fluorophenyl)amino)-1-oxo-3-phenylpropan-2-yl)-2-fluorobenzamide] | 3.13 µg/mL (≈ 6.35 µM) | < 0.39 µg/mL | 0.39 µg/mL (≈ 0.792 µM) | – | – |
| Cc1c(NC(=O)C(Cc2ccccc2)NC(=O)c2ccccc2)cccc1-n1ccnn1 (stereo not shown) [I-215] | > 50 µg/mL | – | 3.12 µg/mL (≈ 7.34 µM) | >100 µg/mL | – |
| O=C(N[C@@H](Cc1ccccc1)C(=O)Nc1cc(F)ccc1N1CCNCC1)c1ccccc1F (racemic) [IX-214b] | 12.5 µg/mL (≈ 26.9 µM) | 12.5 µg/mL (≈ 26.9 µM) | 6.25 µg/mL (≈ 13.5 µM) | – | – |
| Cc1ccc(Cl)cc1NC(=O)[C@@H](Cc1ccccc1)NC(=O)c1ccccc1F [IX-55a] | 0.78 µg/mL (≈ 1.9 µM) | 0.78 µg/mL (≈ 1.9 µM) | 0.073 µg/mL (≈ 0.178 µM) | – | – |
| O=C(NC(Cc1ccccc1)C(=O)Nc1ccncc1)c1ccccc1 [AAP5, Nα-benzoyl-N-(4-pyridyl)-D/L-phenylalaninamide] | – | – | – | – | 12.5 µg/mL (≈ 36.2 µM) |
| Cn1nnc2cccc(NC(=O)C(Cc3ccccc3)NC(=O)c3ccccc3F)c21 (stereo not shown) [IX-300, 2-fluoro-N-(1-((1-methyl-1H-benzo[d][1,2,3]triazol-7-yl)amino)-1-oxo-3-phenylpropan-2-yl)benzamide] | 6.25 µg/mL (≈ 15 µM) | 6.25 µg/mL (≈ 15 µM) | 1.56 µg/mL (≈ 3.74 µM) | – | – |
| Cc1ccccc1NC(=O)C(Cc1ccc(O)cc1)NC(=O)c1ccccc1C (stereo not shown) [IX-66, N-(3-(4-hydroxyphenyl)-1-oxo-1-(o-tolylamino)propan-2-yl)-2-methylbenzamide] | 50 µg/mL (≈ 129 µM) | – | 1.56 µg/mL (≈ 4.02 µM) | >100 µg/mL | – |
| Cc1ccccc1C(=O)NC(Cc1ccccc1)C(=O)Nc1cccc2nnn(C)c12 (stereo not shown) [IX-301, 2-methyl-N-(1-((1-methyl-1H-benzo[d][1,2,3]triazol-7-yl)amino)-1-oxo-3-phenylpropan-2-yl)benzamide] | 6.25 µg/mL (≈ 15.1 µM) | 3.13 µg/mL (≈ 7.57 µM) | 0.39 µg/mL (≈ 0.943 µM) | – | – |
| O=C(NC(Cc1ccc(O)cc1)C(=O)Nc1cccc2cnccc12)c1ccccc1 (stereo not shown) [IX-19, N-(3-(4-hydroxyphenyl)-1-(isoquinolin-5-ylamino)-1-oxopropan-2-yl)benzamide] | 6.25 µg/mL (≈ 15.2 µM) | – | 0.39 µg/mL (≈ 0.948 µM) | 42 µg/mL | – |
| O=C(NC(Cc1ccccc1)C(=O)Nc1ccccc1F)c1ccccc1 [AAP3, Nα-benzoyl-N-(2-fluorophenyl)-D/L-phenylalaninamide] | – | – | – | – | 1.56 µg/mL (≈ 4.3 µM) |
| Cc1ccc(Cl)cc1NC(=O)[C@H](Cc1ccccc1)NC(=O)c1ccccc1F [IX-55b] | > 50 µg/mL | > 50 µg/mL | 25 µg/mL (≈ 60.8 µM) | – | – |
| CCc1cccc(C(=O)NC(Cc2ccccc2)C(=O)Nc2ccccc2C)c1 (stereo not shown) [I-124] | > 50 µg/mL | – | 25 µg/mL (≈ 64.7 µM) | >39 µg/mL | – |
| O=C(NC(Cc1ccc(O)cc1)C(=O)Nc1cccc2c1OCO2)c1ccccc1Br (stereo not shown) [IX-125, N-(1-(benzo[d][1,3]dioxol-4-ylamino)-3-(4-hydroxyphenyl)-1-oxopropan-2-yl)-2-bromobenzamide] | 25 µg/mL (≈ 51.7 µM) | 50 µg/mL (≈ 103 µM) | 1.56 µg/mL (≈ 3.23 µM) | – | – |
| Cc1c(NC(=O)C(Cc2ccccc2)NC(=O)c2ccccc2)cccc1-n1cncn1 (stereo not shown) [I-204] | 25 µg/mL (≈ 58.8 µM) | – | 3.12 µg/mL (≈ 7.34 µM) | >100 µg/mL | – |
| O=C(NC(Cc1ccccc1)C(=O)Nc1cc(F)ccc1N1CCN(CCO)CC1)c1cccs1 (stereo not shown) [IX-247, N-(1-((5-fluoro-2-(4-(2-hydroxyethyl)piperazin-1-yl)phenyl)amino)-1-oxo-3-phenylpropan-2-yl)thiophene-2-carboxamide] | 1.56 µg/mL (≈ 3.14 µM) | 3.12 µg/mL (≈ 6.29 µM) | 0.39 µg/mL (≈ 0.785 µM) | – | – |
| O=C(NC(Cc1ccccc1)C(=O)Nc1ccccc1)c1ccccc1 [AAP4, Nα-benzoyl-N-phenyl-D/L-phenylalaninamide] | – | – | – | – | 0.78 µg/mL (≈ 2.26 µM) |
